The text below walks through data of patent US20230190835A1, “PROBIOTIC BACTERIA FOR TREATING ALZHEIMER'S DISEASE” (RRW B.V., priority 2020, published 2023).

This experiment deals with C. elegans nematode strain with inducible amyloid-β accumulation (CL4176). Nature of the experiment: Alzheimer's disease paralysis assay. It counts as in vivo. An excerpt:
The effect of probiotic bacteria and their combinations with other active agents has been studied in C. elegans nematode strains as an animal model for amyloidoses such as Alzheimer's disease. These strains accumulate amyloid-β peptides that form plaques in the nematodes and lead to paralysis of the animals. In certain strains, such as strain CL4176, Aβ accumulation occurs only in response to heat shock. Thus, the Alzheimer's disease pattern is inducible in these strains. The number of paralyzed nematodes after a certain period of time following induction of Aβ accumulation indicates the extent of Alzheimer's disease. Thus, the effect of certain substances to which the nematodes are exposed on the number of paralyzed animals is a measure of the anti-Alzheimer effect of these substances.
Nematodes of strain CL4176 were synchronized at the young larval stage and allowed to grow to the L4 stage on normal growth medium for 72 h at 16° C. The probiotic bacteria to be tested were added to the growth medium. Then the nematodes were exposed to the test substance and the temperature was increased to 25° C. This heat shock induced Aβ accumulation, simulating the onset of Alzheimer's disease. Approximately every 24 h, the number of animals that were still mobile and those that were paralyzed as a result of Aβ accumulation was determined.
C. elegans of strain CL4176 were exposed to a mixture of different probiotic bacteria at a bacterial concentration of 50 cfu (colony-forming units) in this assay. The bacterial mixture contained the following bacterial species: Enterococcus faecium, Bifidobacterium longum, Streptococcus thermophilus, Lactobacillus acidophilus, Lactobacillus plantarum and Bifidobacterium breve. […] In another series of tests, the nematodes were additionally treated with cannabidiol (CBD).
The two probiotic bacterial strains Lactobacillus rhamnosus and Lactobacillus plantarum were allowed to grow to stationary phase and mixed with the normal diet of nematodes (OP50) E. coli bacteria). C. elegans of strain CL4176 at L4 larval stage were exposed to the probiotic bacteria and other active agents in the induction of Aβ accumulation by increasing the temperature to 25° C. The number of paralyzed animals was checked every 24 h and determined after 96 h.
In the described Alzheimer's disease animal model assay, the effect of the bacterial strain Pseudomonas fluorescens was tested. Upon induction of Aβ accumulation by increasing temperature to 25° C., nematodes were exposed to Pseudomonas fluorescens bacteria, curcumin or CBD, or a combination of the bacteria and the active agent. The number of paralyzed nematodes was determined 96 h after induction of Aβ accumulation.

`C=C(C)[C@@H]1CCC(C)=C[C@H]1c1c(O)cc(CCCCC)cc1O` [CBD, cannabidiol]: the “number of paralyzed nematodes” value (0.08% (v/v), 96 h, FIGS. 3 and 4) was “reduced”. Further, the “paralytic nematodes, individually” value (Example 3, 96 h after induction of Aβ accumulation, FIGS. 7 and 8) is recorded as “reduction in paralytic nematodes”. For the same molecule, for the setting “combination of Pseudomonas fluorescens and active agent, 96 h after induction of Aβ accumulation, FIGS. 7 and 8”, the “effect of combination with Pseudomonas fluorescens” value is “strong synergistic increase in effect”. Besides, the “effect of additional treatment with the active agent on the effect of the probiotic bacterial mixture” value (in combination with probiotic bacterial mixture, 72 h after induction of Aβ accumulation, FIG. 1) is given as “significantly increased the effect of probiotic bacteria”.
With `CCCCCc1cc2c(c(O)c1C(=O)O)[C@@H]1C=C(C)CC[C@H]1C(C)(C)O2` [THCA, delta-9-tetrahydrocannabinolic acid], the “number of paralyzed nematodes” value (60 μl, 96 h, FIGS. 3 and 4) is “reduced”.
On to Lactobacillus plantarum, for which the “paralysis due to Aβ accumulation” value (bacteria grown to stationary phase, mixed with OP50 E. coli diet, 96 h, FIGS. 3 and 4) is given as “reduction in paralysis”. In addition, the “prevention of the effects of Aβ accumulation by combination of bacterium with active agents” value (stationary-phase bacteria combined with curcumin, CBD, THCA or combinations thereof, 96 h, FIGS. 3 and 4) is on record as “significant to synergistic prevention of the effects of Aβ accumulation”.
